Tests used:
[1] = tested on: CHOP; test: CHOP quantitative immunofluorescence in soma after axonal Aβ1-42/Aβ42; format: cell-based, rat; conditions: axonal treatment; Aβ oligomers 36 hours, nelfinavir in the last 24 hours
Protocol: Hippocampi were dissected from embryonic day (E) 16-18 rat embryos obtained from pregnant Sprague-Dawley dams (Envigo). All animal procedures were approved by the Institutional Animal Care and Use Committee at Columbia University. Cell dissociation was performed using TripLE Express. Neurons (50,000-60,000 per microfluidic chamber) were plated on 0.1 mg ml^-1 poly-D-lysine (Millipore Sigma) and 2 μg ml^-1 laminin (Bio-Techne) coated substrates and grown in Neurobasal supplemented with 10% fetal bovine serum, 2 mM L-glutamine, 1 mM sodium pyruvate, and antibiotics (50 U ml^-1 penicillin-streptomycin). Tripartite microfluidic chambers were produced with Dow Corning Sylgard 184 Silicone Encapsulant Clear Kit (10:1 mix ratio; Ellsworth Adhesives) cured at […] for at least 4 hours following published protocols (Park et al. 2006; Desai et al. 2009). Chamber design incorporated two sets of 200-μm-long microgroove barriers to exclude crossing of cell bodies and dendrites (Taylor et al. 2005; […] et al. 2009). After 24 hours, medium was changed to Neurobasal containing 1×B27 and 2 mM L-glutamine. Subsequent medium changes (half volumes) were performed at DIV4 and thereafter every 3-5 days. […] Mean pixel intensity values were computed after background fluorescence subtraction.

[2] = tested on: CREB3L2-ATF4 heterodimers; test: Proximity ligation assay (PLA) of axonal CREB3L2-ATF4 heterodimers; format: cell-based, rat; conditions: axons treated with Aβ oligomers for 36 hours plus nelfinavir
Protocol: Hippocampi were dissected from embryonic day (E) 16-18 rat embryos obtained from pregnant Sprague-Dawley dams (Envigo). All animal procedures were approved by the Institutional Animal Care and Use Committee at Columbia University. Cell dissociation was performed using TripLE Express. Neurons (50,000-60,000 per microfluidic chamber) were plated on 0.1 mg ml^-1 poly-D-lysine (Millipore Sigma) and 2 μg ml^-1 laminin (Bio-Techne) coated substrates and grown in Neurobasal supplemented with 10% fetal bovine serum, 2 mM L-glutamine, 1 mM sodium pyruvate, and antibiotics (50 U ml^-1 penicillin-streptomycin). Tripartite microfluidic chambers were produced with Dow Corning Sylgard 184 Silicone Encapsulant Clear Kit (10:1 mix ratio; Ellsworth Adhesives) cured at […] for at least 4 hours following published protocols (Park et al. 2006; Desai et al. 2009). Chamber design incorporated two sets of 200-μm-long microgroove barriers to exclude crossing of cell bodies and dendrites (Taylor et al. 2005; […] et al. 2009). After 24 hours, medium was changed to Neurobasal containing 1×B27 and 2 mM L-glutamine. Subsequent medium changes (half volumes) were performed at DIV4 and thereafter every 3-5 days. To prevent glial cell proliferation, medium changes included 5-flurodeoxyuridine and uridine (final concentration […]; Millipore Sigma) after DIV4. […]

## Cc1c(O)cccc1C(=O)N[C@@H](CSc1ccccc1)[C@H](O)CN1C[C@H]2CCCC[C@H]2C[C@H]1C(=O)NC(C)(C)C [nelfinavir]
[1]
  downstream induction of CHOP expression in the soma: abolished
[2]
  CREB3L2-ATF4 complexes/heterodimers in axons (PLA): caused the accumulation
